Usually Tmax stands for the time from dosing to the highest level. For orientation: MRT means the average time that molecules of a dose stay in the body. The term IC50 denotes the point on the concentration scale where inhibition reaches its midpoint. The AUC(0-t) is the area under the concentration-time curve up to a stated or last time point. Low readings indicate low exposure, high ones high exposure. Usually AUC(0-inf) stands for the area under the concentration-time curve extrapolated to infinity. As usually defined, the half-life is how long it takes for the measured level to halve. A lower half-life goes with fast loss. Broadly, the Cmax is the maximum level reached in the sampled fluid or tissue.

Experimental findings from US11661437B2, “Steroid derivative regulators, method for preparing the same, and uses thereof” (priority 2018, dated 2023) are described below.

Data set [1] is described as follows: Pharmacokinetic assay in Balb/c mice (plasma and brain tissue). Type of data set: in vivo. Conditions: male, Balb/c, mouse, in vivo, po, 5 mg/kg; for MRT: Mean residence time MRT; for AUC(0-t): Area under curve AUC0-t; for AUC(0-inf): Area under curve AUC0-∞; for half-life: Half-life t1/2; for Cmax: Plasma concentration Cmax. How it is done:
Balb/c mice were used as test animals. The pharmacokinetic behavior in mice (plasma and brain tissue) of the compounds of Example 2, Example 5, Example 7, Example 12, Example 18, Example 23, Example 26, Example 38, Example 41, Example 50, Example 51 and Example 66 orally administrated at a dose of 5 mg/kg was studied.
Each group had 24 male Balb/c mice. After an overnight fast, Balb/c mice were administrated p.o. with the test compound at an administration dose of 5 mg/kg and an administration volume of 10 mL/kg.
0.2 ml of blood was taken from the heart before administration and at 0, 0.5, 1, 2, 4, 6, 8 and 24 hours after administration. The samples were stored in EDTA-K2 tubes, and centrifuged for 6 minutes at 4° C., 6000 rpm to separate the plasma. The plasma samples were stored at −80° C. The mice were sacrificed with CO2, and the whole brain tissue was taken out, weighed, placed in a 2 mL centrifuge tube and stored at −80° C.
1) 160 μL of acetonitrile was added to 40 μL of the plasma sample for precipitation, and then the mixture was centrifuged for 5-20 minutes at 3500×g.
2) 90 μL of acetonitrile containing the internal standard (100 ng/mL) was added to 30 μL of the plasma and brain homogenate samples for precipitation, and then the mixture was centrifuged for 8 minutes at 13000 rpm.
3) 70 μL of the treated supernatant was taken and added to 70 μL of water, and mixed by vortex for 10 minutes. 20 μL of the mixture was taken to analyze the concentration of the test compound by LC/MS/MS. LC/MS/MS analysis instrument: AB Sciex API 4000 Qtrap.
2.6 Liquid Chromatography Analysis • Liquid chromatography condition: Shimadzu LC-20AD pump. • Chromatographic column: Agilent ZORBAX XDB-C18 (50×2.1 mm, 3.5 μm); Mobile phase: Eluent A was 0.1% formic acid in water, and Eluent B was acetonitrile. • Flow rate: 0.4 mL/min • Elution time: 0-4.0 minutes the eluent is as follows:
The main parameters of pharmacokinetics were calculated by WinNonlin 6.1.

The subject of data set [2] is GABA-A receptor. Kind of data set: 35S-TBPS binding assay on rat cerebral cortex cell membrane. Conditions: 2 nM 35S-TBPS, GABA added, read-out: 35S-TBPS bindng test, IC50 on inhibiting the TBPS binding activity. Also on record: species or system Sprague-Dawley rat. How it is done: 1.2.1 Extraction of Cerebral Cortex Cell Membrane:
1. The cerebral cortex of male Sprague-Dawley rat was isolated.
2. A pre-chilled 0.32 M sucrose solution (one tablet of protease inhibitor was added per 100 ml) was added to the cerebral cortex (the volume of sucrose solution was 10 times the volume of the cerebral cortex). The mixture was crushed with a 50 ml glass tissue homogenizer in batches and mixed well.
3. The mixture was centrifuged at 1500 g, 4° C. for 10 minutes, and the supernatant was collected.
4. The mixture was centrifuged at 20000 g, 4° C. for 30 minutes, and the supernatant was discarded.
5. The precipitate was resuspended with the pre-chilled phosphate buffer saline (PBS) (one tablet of protease inhibitor was added per 100 ml). An average of 4 ml of PBS was added per rat, and the mixture was mixed well with a glass tissue homogenizer.
6. The mixture was centrifuged at 10000 g, 4° C. for 10 minutes, and the supernatant was discarded.
7. Steps 5 and 6 were repeated three times.
8. Finally, the precipitate was resuspended with 4 volumes of PBS. The resulting solution was dispensed, frozen in liquid nitrogen, and stored at −80° C.
9. The protein concentration was measured by the bicinchoninic acid (BCA) method.
1.2.2 ^35S-TBPS Binding Assay
1. 230 μL of PBS was added to each well of a well plate with 1.1 ml volume.
2. 60 μL of the cerebral cortex cell membrane (5 μg/μL) solution was added to each well, and the mixture was mixed well.
3. The test compound (3 μL per well) was added, and the plate was incubated at 25° C. for 5 minutes. The DMSO concentration was 1%. The initial compound concentration was 1 NM, and a 3-fold dilution in gradient was carried out to obtain a total of 8 gradients and 2 replicates. 1% DMSO was used as a negative control, and 10 μM P026-2 was used as a positive control.
4. GABA was added at a final concentration of […], and incubated at 25° C. for 5 minutes. 1 mM GABA solution was formulated, and 1.5 μL of the solution was added to each well.
5. ^35S-TBPS was added at a final concentration of 2 nM. The concentration of isotope mother solution was 9.7 μM. After dilution with PBS for 100 times, 6 μL of the diluted isotope solution was added to each well.
6. The plate was incubated at 4° C. for 20 hours.
7. The FilterMate GF/C plate was pre-treated with 0.5% PEI, and incubated at 4° C. for 1 hour.
8. The FilterMate GF/C plate was washed with Universal Harvester twice, 50 ml PBS each time.
9. The reaction solution was transferred to the GF/C plate, and each well was washed 4 times with 900 μL PBS.
10. The washed GF/C plate was placed at 55° C. and dried for 10 minutes.
11. 40 μL of scintillation solution was added to each well, and the CPM value was read with TopCount.
1.2.3 Experimental Data Processing Method:
In the experiment, the CPM (counts per minute) value was read with TopCount. According to the readings of the High control (DMSO) and the Low control (10 μM of the positive compound) experimental groups, the % inhibition was calculated based on the following formula: % Inhibition=100×(CPMHigh control−CPMSample)/(CPMHigh control−CPMLow control)
The IC50 of the compound was calculated according to the following 4-parameter nonlinear logic formula: Y=Bottom+(Top−Bottom)/(1+10^((Log IC50−X)*Hill Slope)),
The effect of the compound of the present invention on the TBPS binding activity was determined by the above test, and the measured IC50 values are shown in Table 1.

`C[C@@]1(O)CC[C@@]2(F)[C@H](CC[C@H]3[C@@H]4CC[C@H](C(=O)Cn5ncnn5)[C@@]4(C)CC[C@@H]32)C1` [Example 12, 1-((3R,5R,8S,9S,10R,13S,14S,17S)-10-Fluoro-3-hydroxy-3,13-dimethylhexadecahydro-1H-cyclopenta[a]phenanthren-17-yl)-2-(2H-tetrazol-2-yl)ethan-1-one]: in data set [1], the “Mean residence time MRT” value was determined as 0.73 h, the time of peak concentration (Tmax) was 0.5 h and the MRT came out at 0.86 h. Also, in data set [2], the IC50 is 13.5 nM.

On to `Cc1nn(CC(=O)[C@H]2CC[C@H]3[C@@H]4CC[C@@H]5C[C@](C)(O)CC[C@]5(F)[C@H]4CC[C@]23C)cc1C#N` [Example 38, 1-(2-((3R,5R,8S,9S,10R,13S,14S,17S)-10-Fluoro-3-hydroxy-3,13-dimethylhexadecahydro-1H-cyclopenta[a]phenanthren-17-yl)-2-oxoethyl)-3-methyl-1H-pyrazole-4-carbonitrile], for which, in data set [1], the “Area under curve AUC0-t” value amounted to 1216.1 ng·h/mL, the “Area under curve AUC0-∞” value turned out to be 1230.2 ng·h/mL, the “Half-life t1/2” value was 1.14 h and the “Mean residence time MRT” value is recorded as 1.6 h. In data set [1], the “Plasma concentration Cmax” value came out at 746.7 ng/mL, the AUC(0-t) turned out to be 1950 ng·h/mL, the AUC(0-inf) stood at 1970 ng·h/mL and the half-life is 1.08 h. In data set [1], this molecule had a mean residence time MRT of 1.7 h and a Cmax of 1110 ng/mL. Moreover, the time of peak concentration (Tmax) in data set [1] (Peak time tmax) amounted to 0.5 h. Moreover, in data set [2], the IC50 amounted to 34 nM.

Take `Cc1nnn(CC(=O)[C@H]2CC[C@H]3[C@@H]4CC[C@@H]5C[C@](C)(O)CC[C@]5(F)[C@H]4CC[C@]23C)n1` [Example 41, 1-((3R,5R,8S,9S,10R,13S,14S,17S)-10-Fluoro-3-hydroxy-3,13-dimethylhexadecahydro-1H-cyclopenta[a]phenanthren-17-yl)-2-(5-methyl-2H-tetrazol-2-yl)ethan-1-one]: in data set [1], the “Mean residence time MRT” value came to 0.91 h, the “Plasma concentration Cmax” value is recorded as 625.3 ng/mL, the Tmax is 0.5 h and the mean residence time (MRT) came out at 0.94 h. In addition, in data set [1], the Cmax worked out at 1230 ng/mL. In addition, the IC50 in data set [2] was 13.6 nM.

With `C[C@@]1(O)CC[C@]2(F)C3CC[C@]4(C)[C@@H](C(=O)Cn5cc(C#N)c(Cl)n5)CC[C@H]4[C@@H]3CC[C@@H]2C1` (stereo partly drawn) [Example 51, 3-Chloro-1-(2-((3R,5R,8S,10R,13S,14S,17S)-10-fluoro-3-hydroxy-3,13-dimethylhexadecahydro-1H-cyclopenta[a]phenanthren-17-yl)-2-oxoethyl)-1H-pyrazole-4-carbonitrile], in data set [1], the “Area under curve AUC0-t” value was determined as 1625.9 ng·h/mL, the “Area under curve AUC0-∞” value is 1796.0 ng·h/mL, the “Half-life t1/2” value came to 2.19 h and the “Mean residence time MRT” value was determined as 3.28 h. In data set [1], the “Plasma concentration Cmax” value is 512.3 ng/mL, the time of peak concentration (Tmax) was 1 h, the AUC(0-t) is 1960 ng·h/mL and the total exposure AUC(0-inf) amounted to 2080 ng·h/mL. In addition, in data set [1], the half-life is 1.93 h, the MRT came out at 2.65 h and the highest level (Cmax) was 711 ng/mL. Further, the time to peak (Tmax) in data set [1] (Peak time tmax) was 0.5 h. The IC50 in data set [2] was found to be 14.3 nM.

`C[C@@]1(O)CC[C@@]2(F)[C@H](CC[C@H]3[C@@H]4CC[C@H](C(=O)COc5cnc(C(F)(F)F)nc5)[C@@]4(C)CC[C@@H]32)C1` [Example 66, 1-((3R,5R,8S,9S,10R,13S,14S,17S)-10-Fluoro-3-hydroxy-3,13-dimethylhexadecahydro-1H-cyclopenta[a]phenanthren-17-yl)-2-((2-(trifluoromethyl)pyrimidin-5-yl)oxy)ethan-1-one]: in data set [1], the “Half-life t1/2” value was determined as 3.60 h, the “Mean residence time MRT” value is given as 5.01 h, the time of peak concentration (Tmax) was 1 h and the half-life was 4.39 h. For the same molecule, in data set [1], the MRT turned out to be 5.54 h. Also, the time to peak (Tmax) in data set [1] (Peak time tmax) amounted to 0.5 h. The IC50 in data set [2] turned out to be 27 nM.
